Assay results: PMC10799918, “Revealing the mechanistic interactions of profenofos and captan pesticides with serum protein via biophysical and computational investigations” (Scientific Reports, 2024)

Target: T1, bovine serum albumin (BSA) (Bos taurus, UniProt P02769)
T1 construct: gene ALB; PDB 4F5S used for docking only
Experiment: intrinsic fluorescence quenching (ex […] nm, em […] nm), double-logarithmic plot
Assay type: binding
Details: 310 K, pH 7.4, 10 mM Tris-HCl, 150 mM NaCl, 2 uM BSA, 0.1% acetonitrile, no site probe; double-log

T1 sequence (P02769 25-607): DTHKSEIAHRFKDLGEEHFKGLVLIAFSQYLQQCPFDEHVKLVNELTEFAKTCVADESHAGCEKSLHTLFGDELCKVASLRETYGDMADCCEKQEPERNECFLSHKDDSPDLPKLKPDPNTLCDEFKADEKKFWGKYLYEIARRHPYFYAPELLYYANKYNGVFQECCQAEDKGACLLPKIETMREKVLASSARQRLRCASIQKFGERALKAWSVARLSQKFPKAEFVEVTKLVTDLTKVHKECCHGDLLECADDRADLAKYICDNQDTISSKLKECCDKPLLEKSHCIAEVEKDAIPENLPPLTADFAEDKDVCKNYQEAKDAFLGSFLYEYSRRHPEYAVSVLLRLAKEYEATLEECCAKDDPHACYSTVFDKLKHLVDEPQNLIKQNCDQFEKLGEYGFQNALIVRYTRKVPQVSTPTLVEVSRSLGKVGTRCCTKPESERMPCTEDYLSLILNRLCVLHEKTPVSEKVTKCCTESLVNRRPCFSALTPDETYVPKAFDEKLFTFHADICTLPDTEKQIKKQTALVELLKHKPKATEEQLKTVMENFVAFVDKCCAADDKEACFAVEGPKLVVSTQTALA

CCCSP(=O)(OCC)Oc1ccc(Br)cc1Cl (centres unmarked) [compound 1, 4-bromo-2-chloro-1-[ethoxy(propylsulfanyl)phosphoryl]oxybenzene]
Ka: 3897 ± 1.49 M⁻¹

O=C1C2CC=CCC2C(=O)N1SC(Cl)(Cl)Cl (centres unmarked) [compound 2, 2-(trichloromethylsulfanyl)-3a,4,7,7a-tetrahydroisoindole-1,3-dione]
Ka (M^-1): 14,581 ± 1.40 M^-1
